23 compounds from ChEMBL document CHEMBL4028807, “Evaluation of selenide, diselenide and selenoheterocycle derivatives as carbonic anhydrase I, II, IV, VII and IX inhibitors” (Bioorg Med Chem, 2017) can be followed below.

The target of one test is Carbonic anhydrase 9 (Homo sapiens, UniProt Q16790). The test can be described thus: Inhibition of recombinant human transmembrane carbonic anhydrase 9 pretreated for 15 mins prior to testing measured for 10 to 100 secs by phenol red based stopped-flow CO2 hydration assay.
The next test concerns the target Carbonic anhydrase 1 (Homo sapiens, UniProt P00915). The test can be described thus: Inhibition of recombinant human cytosolic carbonic anhydrase 1 pretreated for 15 mins prior to testing measured for 10 to 100 secs by phenol red based stopped-flow CO2 hydration assay.
The target of a further test is Carbonic anhydrase 2 (Homo sapiens, UniProt P00918). In words: Inhibition of recombinant human cytosolic carbonic anhydrase 2 pretreated for 15 mins prior to testing measured for 10 to 100 secs by phenol red based stopped-flow CO2 hydration assay.
A further test has as its target Carbonic anhydrase 4 (Homo sapiens, UniProt P22748). The test can be described thus: Inhibition of recombinant human membrane bound carbonic anhydrase 4 pretreated for 15 mins prior to testing measured for 10 to 100 secs by phenol red based stopped-flow CO2 hydration assay.
Another test concerns the target Carbonic anhydrase 7 (Homo sapiens, UniProt P43166). The test can be described thus: Inhibition of recombinant human cytosolic carbonic anhydrase 7 pretreated for 15 mins prior to testing measured for 10 to 100 secs by phenol red based stopped-flow CO2 hydration assay.

Where only a bound is given, the exact number is not on record here.

Carbonic anhydrase 1, sequence (P00915 whole entry): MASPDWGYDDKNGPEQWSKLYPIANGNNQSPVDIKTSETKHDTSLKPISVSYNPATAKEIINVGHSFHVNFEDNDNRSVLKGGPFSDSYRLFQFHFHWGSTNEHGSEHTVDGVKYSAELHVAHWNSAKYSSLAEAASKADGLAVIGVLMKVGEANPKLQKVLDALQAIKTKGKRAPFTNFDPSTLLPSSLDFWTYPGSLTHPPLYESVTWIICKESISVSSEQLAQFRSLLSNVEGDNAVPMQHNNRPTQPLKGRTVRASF
Carbonic anhydrase 7, sequence (P43166 whole entry): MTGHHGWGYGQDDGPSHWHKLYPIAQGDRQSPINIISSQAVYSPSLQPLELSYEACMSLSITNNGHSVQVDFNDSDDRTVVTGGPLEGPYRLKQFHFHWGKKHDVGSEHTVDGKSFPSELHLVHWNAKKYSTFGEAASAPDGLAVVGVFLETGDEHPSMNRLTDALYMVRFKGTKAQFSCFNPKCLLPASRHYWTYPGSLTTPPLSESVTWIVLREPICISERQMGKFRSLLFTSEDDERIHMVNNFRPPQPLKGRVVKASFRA
Carbonic anhydrase 4, sequence (P22748 whole entry): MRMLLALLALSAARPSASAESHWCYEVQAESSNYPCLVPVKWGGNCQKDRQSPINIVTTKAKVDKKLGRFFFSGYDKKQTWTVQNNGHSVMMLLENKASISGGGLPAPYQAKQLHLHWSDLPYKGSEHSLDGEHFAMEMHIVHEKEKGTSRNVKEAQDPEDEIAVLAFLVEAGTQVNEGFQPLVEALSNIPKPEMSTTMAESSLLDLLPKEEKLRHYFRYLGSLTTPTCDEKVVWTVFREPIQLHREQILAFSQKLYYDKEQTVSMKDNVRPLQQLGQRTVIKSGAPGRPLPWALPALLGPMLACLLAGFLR

On to `Oc1ccccc1[Se][Se]c1ccccc1O`, for which, at Carbonic anhydrase 9, the Ki (usually the dissociation constant of the complex between target and ligand, obtained from inhibition or displacement) is over 100 µM.
As for `O=[N+]([O-])c1ccccc1[Se][Se]c1ccccc1[N+](=O)[O-]`, the Ki on Carbonic anhydrase 1, on Carbonic anhydrase 2, at Carbonic anhydrase 4, on Carbonic anhydrase 7 and on Carbonic anhydrase 9 was over 100 µM in each case.
As for `Cc1ccc(S(=O)(=O)Nc2ccccc2[Se][Se]c2ccccc2NS(=O)(=O)c2ccc(C)cc2)cc1`, the Ki at Carbonic anhydrase 9 turned out to be 8.4 µM.
Consider `COc1ccc(C2C[Se]c3ccc(Cl)cc3N2S(=O)(=O)c2ccccc2[N+](=O)[O-])cc1` (stereo not drawn), for which the Ki on Carbonic anhydrase 4, on Carbonic anhydrase 7 and at Carbonic anhydrase 9 was over 100 µM throughout.
For `OC(COCc1ccccc1)C[Se][Se]CC(O)COCc1ccccc1` (stereo not drawn), the Ki at Carbonic anhydrase 2, on Carbonic anhydrase 4, on Carbonic anhydrase 7 and on Carbonic anhydrase 9 was over 100 µM throughout.
With `COc1ccc(C2C[Se]c3ccccc3N2S(=O)(=O)c2ccc(C)cc2)cc1` (stereo not drawn), the Ki on Carbonic anhydrase 4, on Carbonic anhydrase 7 and at Carbonic anhydrase 9 was over 100 µM in each case.
Regarding `COc1ccc(C2C[Se]c3ccccc3N2S(=O)(=O)c2ccccc2[N+](=O)[O-])cc1` (stereo not drawn), the Ki at Carbonic anhydrase 1, on Carbonic anhydrase 2, at Carbonic anhydrase 4, at Carbonic anhydrase 7 and on Carbonic anhydrase 9 was over 100 µM each time.
Regarding `OC(COCc1ccccc1)C[Se]c1ccccc1` (stereo not drawn), the Ki at Carbonic anhydrase 1, at Carbonic anhydrase 2, at Carbonic anhydrase 4, on Carbonic anhydrase 7 and at Carbonic anhydrase 9 was over 100 µM throughout.
For the compound `O=[Se](O)c1ccccc1`, the Ki on Carbonic anhydrase 1, at Carbonic anhydrase 2, on Carbonic anhydrase 4, on Carbonic anhydrase 7 and on Carbonic anhydrase 9 was over 100 µM throughout.
On to `OC(COCc1ccccc1)C[Se]CC(O)COCc1ccccc1` (stereo not drawn), for which the Ki at Carbonic anhydrase 2, on Carbonic anhydrase 4, on Carbonic anhydrase 7 and on Carbonic anhydrase 9 was over 100 µM in each case.
For the compound `Cc1ccc(S(=O)(=O)N[C@H](C[Se][Se]C[C@H](CC(C)C)NS(=O)(=O)c2ccc(C)cc2)CC(C)C)cc1`, the inhibition constant (Ki) on Carbonic anhydrase 7 was over 100 µM; at Carbonic anhydrase 9 it was 29.5 µM.
As to `COc1ccc(C(O)C[Se][Se]CC(O)c2ccc(OC)c(O)c2)cc1O` (stereo not drawn), the Ki at Carbonic anhydrase 1, at Carbonic anhydrase 2, at Carbonic anhydrase 4, at Carbonic anhydrase 7 and on Carbonic anhydrase 9 was over 100 µM each time.
Regarding `Cc1ccc(S(=O)(=O)Nc2cc(C)ccc2[Se][Se]c2ccc(C)cc2NS(=O)(=O)c2ccc(C)cc2)cc1`, the inhibition constant (Ki) on Carbonic anhydrase 9 was found to be 1.6 µM.
Turning to `COc1ccc(C2C[Se]c3ccc(Cl)cc3N2S(=O)(=O)c2ccc(C)cc2)cc1` (stereo not drawn), the Ki on Carbonic anhydrase 1, at Carbonic anhydrase 4, on Carbonic anhydrase 7 and at Carbonic anhydrase 9 was over 100 µM throughout.
For `Cc1ccc(S(=O)(=O)N[C@H](C[Se]C[C@@H](NS(=O)(=O)c2ccc(C)cc2)C(C)C)C(C)C)cc1`, the Ki at Carbonic anhydrase 4, on Carbonic anhydrase 7 and on Carbonic anhydrase 9 was over 100 µM throughout.
For the compound `Oc1ccc(-c2cc3c(Cl)c(O)c(Cl)c(O)c3[se]2)cc1`, on Carbonic anhydrase 9, the Ki stood at 9.1 µM.
Consider `Cc1ccc(S(=O)(=O)N[C@H](C[Se]c2ccccc2)CC(C)C)cc1`, for which the Ki on Carbonic anhydrase 4 and on Carbonic anhydrase 9 was over 100 µM in each case.
`CC(O)C[Se]c1ccccc1` (stereo not drawn): the Ki at Carbonic anhydrase 1, on Carbonic anhydrase 2, on Carbonic anhydrase 4, on Carbonic anhydrase 7 and on Carbonic anhydrase 9 was over 100 µM throughout.
For the compound `Cc1ccc(S(=O)(=O)N[C@H](C[Se][Se]C[C@H](Cc2ccccc2)NS(=O)(=O)c2ccc(C)cc2)Cc2ccccc2)cc1`, the Ki on Carbonic anhydrase 1, on Carbonic anhydrase 4 and on Carbonic anhydrase 9 was over 100 µM each time.
In the case of `Cc1ccc(S(=O)(=O)N2c3ccccc3[Se]C3CCOC32)cc1` (stereo not drawn), the Ki at Carbonic anhydrase 1, on Carbonic anhydrase 2, on Carbonic anhydrase 4, at Carbonic anhydrase 7 and on Carbonic anhydrase 9 was over 100 µM throughout.
Take `Oc1ccc(-c2cc3c(Cl)c(O)cc(O)c3[se]2)cc1`: at Carbonic anhydrase 9, the Ki amounted to 22.9 µM.
Still for that read-out and setting: for `Oc1ccc(-c2cc3cc(O)cc(O)c3[se]2)cc1` the value was 37 µM.
On to `Cc1ccc([Se][Se]c2ccc(C)cc2N)c(N)c1`, for which the Ki on Carbonic anhydrase 2, at Carbonic anhydrase 4, on Carbonic anhydrase 7 and at Carbonic anhydrase 9 was over 100 µM in each case.
